The subject of the experiment is TGF-β-stimulated SMAD3 phosphorylation in BEAS-2B cells. Kind of experiment: Cellular ALK5 potency assay, inhibition of TGF-β stimulated pSMAD3 formation in BEAS-2B cells. Conditions: Homo sapiens, 1 hour compound incubation, TGF-β 10 ng/mL for 30 minutes, read-out: pIC50 value, inhibition of TGF-β-stimulated pSMAD3 formation (converted). The experiment is classed as cell-based. On the procedure: The potency of the compound of Formula I for inhibition of TGF-β-stimulated SMAD3 phosphorylation was measured in BEAS-2B cells, a human lung epithelial cell line. TGF-β signals through activin receptor-like kinase 5 (ALK5) immediately prior to SMAD3 phosphorylation.
BEAS-2B cells were grown using 50% DMEM (Life Technologies) and 50% F-12 (Life Technologies) media, supplemented with 10% Fetal Bovine Serum (ATCC), 25 mM HEPES (Life Technologies), and 1× Pen-Strep (Life Technologies). Cells were cultured in a humidified incubator set at 37° C., 5% CO2, and trypsonized using 0.25% Trypsin with 0.5% polyvinylpyrrolidone (PVP).
For the assay, BEAS-2B cells were seeded at 7,500 cells/well (25 μL/well) in a 384-well plate and cultured overnight. Before dosing, growth media was aspirated and the wells were rinsed with HBSS Buffer (HBSS with Calcium and Magnesium, Life Technologies) supplemented with 25 mM HEPES (Life Technologies) and 1% Bovine Serum Albumin (Roche). […] AlphaLISA Acceptor and Detector beads (PerkinElmer) were added 2 hours apart, then incubated overnight to be read the next day. The potency of the compound was determined through analysis of dose-dependent quantified changes in pSMAD3 signal from baseline (non-compound treated TGF-β stimulated cells). Data are expressed as pIC50 (negative decadic logarithm IC50) values.

Take `C[C@@H]1CN(CCNc2cnc3ccc(-c4nc[nH]c4-c4cc(Cl)ccc4F)nc3c2)C[C@H](C)N1` [compound of Formula I, 6-(5-(5-chloro-2-fluorophenyl)-1H-imidazol-4-yl)-N-(2-((3S,5R)-3,5-dimethylpiperazin-1-yl)ethyl)-1,5-naphthyridin-3-amine]: the IC50 is 25.1 to 158 nM.

The values are drawn from patent publication US20210387983A1, “CRYSTALLINE ALK5 INHIBITORS AND USES THEREOF” (THERAVANCE BIOPHARMA R&D IP, LLC, priority 2020, published 2021).
